Results published in PMC12176268, “Structural Features and Photophysical and Antiproliferative Properties of Me2N‑pbt-Cycloplatinated Complexes with Picolinate Ligands” (Inorganic Chemistry, 2025).
Read-outs that look alike come from different tables or passages of the source.

Tests used:
[1] = Stability in serum-free DMEM containing 5% DMSO by UV–vis; type: physicochemical; details: DMEM with 5% DMSO, 25 μM, 37 °C
Description: The stability of complexes 1–4 was then investigated in more biologically relevant media by UV–visible spectroscopy. First, the stability of the complexes was studied in phosphate-buffered saline (PBS) containing 5% DMSO (Figure S30). […] Only a decrease in the intensity of all bands was observed, which could be attributed to partial aggregation and/or precipitation. […] The stability of complexes 1–4 was next studied in serum-free DMEM cell culture containing 5% DMSO (Figure S31). […] This final species seemed to have spectral features similar to those observed for complex 4 (Figure S31A). […] The similarity of the spectral features of the transformed species in all cases seemed to point to the formation of a common species upon incubation in DMEM, which we tentatively attribute to the decoordination of the picolinate ligands with a substituent-dependent kinetics; the COOH group favored the release of the picolinate ligand, while both NH2 and OH substituents seemed to slow down this process.
The UV–vis spectra of complexes 1–4 were recorded in PBS:DMSO (95/5) and serum-free DMEM:DMSO (95/5) at a concentration of 25 μM on a Cary 50 spectrophotometer (Varian).

MDA-MB-231 = assay: MTT cell viability assay on MDA-MB-231 cells, dark and 450 nm irradiation; type: cell-based, human; details: for EC50: MTT
Description: (§1) (C∧N) cyclometalated Pt(II) complexes have been previously reported to have strong antiproliferative activities when associated with phenanthroline-based, diphosphine, acyclic diamino carbenes, or picolinate ligands. In particular, (Me2N-pbt)-cyclometalated platinum complexes have been previously reported by some of us to have antiproliferative properties in the micromolar range on a panel of cancer cell lines, prompting us to investigate the anticancer properties of complexes 1–4 in dark conditions and, considering their high quantum yield (ϕΔ) of ^1O2 generation, under irradiation conditions. Due to the poor solubility of the complexes in an aqueous environment, complexes 1–4 were first dissolved in DMSO and diluted in the culture media to reach a final concentration of 1% DMSO when incubated with the cells. All complexes were screened against the so-called “triple-negative” breast cancer cell line MDA-MB-231, lung adenocarcinoma cell line A549, and the noncancerous breast cell line MCF-10A for 72 h in dark conditions and under 5 min irradiation at 450 nm (see Experimental Section for details). The irradiation time was kept short to prevent light-induced toxicity of the energetic wavelength observed at longer irradiation times (data not shown). The measurement of the effective concentration at 50% (EC50) was carried out using the classical MTT assay, and the data are provided in Table .
(§2) In dark conditions, we could notice a strong influence of substituents on the picolinate ligands. […] This can be correlated with its poor stability in the culture medium mentioned above, which might reduce its cellular uptake. […] However, in dark conditions, no particular selectivity for cancer cells could be observed with similar activity measured against the noncancerous cell line MCF-10A. For the “light” experiments, the cells were preincubated with the complexes for 4 h in the dark, irradiated at 450 nm for 5 min, and then put back in the dark until 72 h. The photoactivity index (PI) values, defined as the ratio between the EC50 in dark conditions and the EC50 after irradiation for each cell line, are shown in Figure .
(§3) The human lung adenocarcinoma cell line A549 and human breast cancer cell line MDA-MB-231 were cultivated in DMEM (Dulbecco’s modified Eagle’s medium) containing GlutaMax I supplemented with 10% FBS at 37 °C in a humidified atmosphere and 5% CO2. The noncancerous cell line MCF-10A was maintained in DMEM:F12 (1:1) cell culture media, 5% heat-inactivated horse serum, supplemented with HEPES (20 mM), L-glutamine (2 mM), epidermal growth factor (20 ng/mL), hydrocortisone (500 ng/mL), cholera toxin (100 ng/mL), and insulin (10 μg/mL). Cell viability was evaluated by using a colorimetric method based on the tetrazolium salt MTT [3-(4,5-dimethylthiazol-2-yl)-2,5-diphenyltetrazolium bromide], which is reduced by viable cells to yield purple formazan crystals. Cells were seeded in 96-well plates at a density of 40000 cells/mL (100 μL per well). Stock solutions were prepared in DMSO for complexes 1–4 and in water for cisplatin. […] For dark experiments, after overnight attachment, a dilution series of the compounds was added to the medium, and the cells were incubated for a further 72 h. For the irradiated experiments, after overnight attachment, a dilution series of the compounds was added to the medium, and the cells were preincubated for 4 h. The cells were then irradiated at 450 nm for 5 min with a Kessil Lamp (power: 3 mW/cm^2, 1.13 × 10^–8 Einstein/s at 20 cm distance between the light source and 96-well plate) and the incubation was continued until 72 h. After 72 h, the medium was removed and the cells were incubated with MTT solution in PBS (10 μL of 5 mg/mL) for 2–3 h. The formed purple formazan crystals were dissolved in 100 μL of DMSO by thorough shaking, and the absorbance at 580 nm was read using a microplate reader (FLUOstar OPTIMA, BMG Labtech). Each test was performed with at least 3 replicates and repeated at least 3 times. […]

[2] = Singlet oxygen generation, NIR emission at 1274 nm versus phenalenone; type: physicochemical; details: aerated acetonitrile 5 × 10^–5 M, 298 K, excitation 365 nm, reference phenalenone
Method: In aerated DMSO solutions, complexes 1–3 display a fluorescence band only at ca 510 nm, attributed to ^1LL′CT/^1ILCT, due to easy quenching of the phosphorescence by oxygen. However, upon prolonged photoexcitation at 365 nm, a continuous enhancement of the phosphorescence band is observed. Simply irradiating with a hand UV–vis lamp, the initial blue-green emission gradually shifts to the orange enhanced emission. The phosphorescence increases its maximum intensity in ca 15 1, 8 2, or 12 min 3 (Figures and S23). […] This relatively rare behavior has been previously observed by us , and other groups, and is explained by the occurrence of a local sensitization caused by energy transfer from the low-energy triplet to ^3O2-producing singlet ^1O2, which is able to selectively react with the solvent creating a free oxygen microenvironment that switches-on a phosphorescence band due to ^3ILCT at 580 nm. The strong sensitivity of the phosphorescence emission in these complexes encourages us to determine their efficiency as ^1O2 sensitizers. The singlet oxygen generation of complexes 1–3 was examined in acetonitrile solution (5 × 10^–5 M) using a near-infrared detector upon excitation at 365 nm, detecting the characteristic emission profile of ^1O2 at λem ∼ 1274 nm (Figure ).

MCF-10A = assay: MTT cell viability assay on noncancerous MCF-10A cells, dark and 450 nm irradiation; type: cell-based, human; details: for EC50: MTT
Description: as §1, §2, §3

Substance: [Pt(Me2N-pbt)(3-OH-pic-κN,O)] [Complex 3]
- stability in serum-free DMEM, UV–vis spectral changes, 24 h ([1]; 24 h): spectral features of both complexes changed
- stability in serum-free DMEM, UV–vis spectral changes, first 4 h ([1]; first 4 h, dark or with 5 min irradiation at 450 nm): no spectral changes
- EC50 (MDA-MB-231; 4 h preincubation, 5 min irradiation at 450 nm, then dark until 72 h, read-out: EC50 MDA-MB-231 light): 220 ± 30 nM
- EC50 (MDA-MB-231; 72 h incubation at 37 °C, dark, read-out: EC50 MDA-MB-231 dark): 2600 ± 800 nM
- reduction of the antiproliferative activity relative to 1, MDA-MB-231 (MDA-MB-231; dark conditions): ~5 times
- lower activity toward MDA-MB-231 cells compared to the noncancerous cells (MDA-MB-231; dark conditions, versus MCF-10A): 2 fold
- activity on MDA-MB-231 compared to the noncancerous cell line (MDA-MB-231; upon irradiation (450 nm, 5 min), versus MCF-10A): twice as active
- quantum yield (ϕΔ) of 1O2 [2]: 16.2%
- photoactivity index (PI), EC50 dark / EC50 after irradiation, MCF-10A (MCF-10A; 5 min irradiation at 450 nm): < 2
- EC50 (MCF-10A; 4 h preincubation, 5 min irradiation at 450 nm, then dark until 72 h, read-out: EC50 MCF-10A light): 520 ± 50 nM
- EC50 (MCF-10A; 72 h incubation at 37 °C, dark, read-out: EC50 MCF-10A dark): 1000 ± 200 nM
